Experimental data: patent US8809341B2, “2,4-pyrimidinediamine compounds and uses as anti-proliferative agents” (Rigel Pharmaceuticals, Inc., priority 2003, dated 2014)
Where two headings read alike, the source gives them in different places.

Tests used:
[1] = tested on: SKMEL5; assay: in vitro antiproliferation assay, SKMEL5; assay type: cell-based
Method: (§1) The IC50 values of various compounds against a various different tumor cell lines were determined using standard in vitro antiproliferation assays. The tumor cell lines tested were as follows: A549 (lung); H1299 (lung), ACHN (kidney/p53 wt), CAKI (renal cell carcinoma), NCI-H460 (lung); HCT116 (colon/p53w0; HELA (cervix/p53 wt), HUH7 (liver/p53 wt), HUVEC (primary endothelial), LNCAP (prostate), HT-29 (colon); MCF-7 (breast); MCF-7 (breast/ER positive), MDA MB435S (breast); MDA MB231 (breast/ER negative), DU145 (prostate); BxPC-3 (pancreatic); SKOV-3 (ovarian); HepG2 (hepatic), NDHF primary normal human dermal fibroblast), SKMEL28 (breast/p53mut), SKMEL5 (breast/p53 wt), U20S (bone) and PC3 (prostate). […] A blank indicates the specified compound was not tested against the specified cell line.
(§2) Many of the compounds were tested against other cell lines. Their activity is reported in TABLE 15, below, where +”, “−”, “−/+” or “+/−” values are as described for TABLES 1-14. Where the cell line includes a value in a parenthetical, the value indicates the seeding density at which the assay was performed

[2] = tested on: NDHF; assay: in vitro antiproliferation assay, NDHF (primary normal human dermal fibroblast); assay type: cell-based
Method: as §1, §2

[3] = tested on: CAKI; assay: in vitro antiproliferation assay, CAKI (renal cell carcinoma); assay type: cell-based
Method: as §1, §2

[4] = tested on: HUVEC; assay: in vitro antiproliferation assay, HUVEC (primary endothelial); assay type: cell-based
Method: as §1, §2

[5] = tested on: H1299 cells; assay: in vitro antiproliferation assay, H1299 (lung); assay type: cell-based
In short: (§3)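 IC50 values came from standard antiproliferation testing in cultured tumour cells; the A549 and H1299 lines are of lung origin.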

[6] = tested on: ACHN; assay: in vitro antiproliferation assay, ACHN (kidney/p53 wt); assay type: cell-based
Method: as §1, §2

[7] = tested on: HUH7; assay: in vitro antiproliferation assay, HUH7 (liver/p53 wt); assay type: cell-based
Method: as §1, §2

[8] = tested on: U20S; assay: in vitro antiproliferation assay, U20S (bone); assay type: cell-based
Method: as §1, §2

[9] = tested on: SKMEL28; assay: in vitro antiproliferation assay, SKMEL28 (breast/p53mut); assay type: cell-based
Method: as §1, §2

[10] = tested on: LNCAP; assay: in vitro antiproliferation assay, LNCAP (prostate); assay type: cell-based
Method: as §1, §2

[11] = tested on: HELA; assay: in vitro antiproliferation assay, HELA (cervix/p53 wt); assay type: cell-based
Method: as §1, §2

[12] = tested on: MDA MB231; assay: in vitro antiproliferation assay, MDA MB231 (breast/ER negative); assay type: cell-based
Method: as §1, §2

[13] = tested on: MCF-7; assay: in vitro antiproliferation assay, MCF-7 (breast/ER positive); assay type: cell-based
Method: as §1, §2

[14] = tested on: HCT116; assay: in vitro antiproliferation assay, HCT116 (colon); assay type: cell-based
In short: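 Antiproliferation, standard in vitro format; readout IC50. Parenthetical number next to cell line = seeding density.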

[15] = tested on: A549 cells; assay: in vitro antiproliferation assay, A549 (lung); assay type: cell-based
In short: as §3

[16] = tested on: tumors generated from A549 cells; assay: in vivo xenograft experiment, tumors generated from A549 cells; conditions: mice
Method: Compounds 107, 858, 164, 211 and 156 were tested for their ability to shrink tumors generated from A549 cells in standard xenograft experiments. Compounds 141 and 211 were tested against H1299 tumors.

[17] = tested on: PC3; assay: in vitro antiproliferation assay, PC3 (prostate); assay type: cell-based
Method: as §1, §2

[18] = IC50 class against H1299 (lung) tumor cells
[19] = MDA-MB-231, seeding density 2K, read-out: MDA-MB-231(2K)
[20] = MDA-MB-231, seeding density 4K, read-out: MDA-MB-231(4K)
[21] = MCF7, seeding density 2K, read-out: MCF7(2K)
[22] = MCF7, seeding density 4K, read-out: MCF7(4K)
[23] = HCT116 (colon), read-out: HCT116
[24] = IC50 class against A549 (lung) tumor cells
[25] = Table 5, in vitro antiproliferation, H1299 (lung) cells
[26] = Table 5, in vitro antiproliferation, A549 (lung) cells
[27] = Table 7, in vitro antiproliferation, colon cells, read-out: HTC116
[28] = Table 7, in vitro antiproliferation, A549 (lung) cells
[29] = H1299 (lung) cells, in vitro antiproliferation
[30] = A549 (lung) cells, in vitro antiproliferation

COC(=O)N1CCN(c2ccc(Nc3ncc(F)c(NC4CCC4)n3)cc2)CC1 [compound 107]
IC50 [1]: ≤ 20 µM | IC50 [2]: ≤ 20 µM | IC50 [3]: ≤ 20 µM | IC50 [4]: ≤ 20 µM | IC50 [5, 18]: ≤ 20 µM | IC50 [6]: ≤ 20 µM | IC50 [7]: ≤ 20 µM | IC50 [8]: ≤ 20 µM | IC50 [9]: ≤ 20 µM | IC50 [10]: ≤ 20 µM | IC50 [11]: ≤ 20 µM | IC50 [12, 19]: ≤ 20 µM | IC50 [12, 20]: ≤ 20 µM | IC50 [13, 21]: ≤ 20 µM | IC50 [13, 22]: ≤ 20 µM | IC50 [14, 23]: > 20 µM | IC50 [15, 24]: ≤ 20 µM

CN1CCN(c2ccc(Nc3ncc(F)c(N(C)C4CCC4)n3)cc2)CC1 [compound 125]
IC50 [5, 18]: ≤ 20 µM | IC50 [11]: ≤ 20 µM | IC50 [12, 19]: ≤ 20 µM | IC50 [12, 20]: ≤ 20 µM | IC50 [13, 21]: ≤ 20 µM | IC50 [13, 22]: ≤ 20 µM | IC50 [14, 23]: ≤ 20 µM | IC50 [15, 24]: ≤ 20 µM

CN1CCN(c2ccc(Nc3ncc(F)c(NC4CCCCC4)n3)cc2)CC1.Cl [compound 156]
Preliminary Results: reduction in tumor size ([16]; 50 mg/kg Bid, daily, 0.9% Saline): 60.4%

Fc1cnc(Nc2cccc(-c3ncco3)c2)nc1Nc1cc(C2CC2)[nH]n1 [compound 211]
IC50 ([5]; Homo sapiens, NCI-H1299, IC50 class against H1299 (lung) tumor cells): ≤ 20 µM | IC50 ([11]; Homo sapiens): ≤ 20 µM | IC50 ([12]; Homo sapiens, MDA-MB-231, seeding density 2K, read-out: MDA-MB-231(2K)): ≤ 20 µM | IC50 ([12]; Homo sapiens, MDA-MB-231, seeding density 4K, read-out: MDA-MB-231(4K)): ≤ 20 µM | IC50 ([13]; Homo sapiens, MCF7, seeding density 2K, read-out: MCF7(2K)): ≤ 20 µM | IC50 ([13]; Homo sapiens, MCF7, seeding density 4K, read-out: MCF7(4K)): ≤ 20 µM | Preliminary Results: reduction in tumor size ([16]; 25 mg/kg bid, 100% DMSO): 23.2% | IC50 ([14]; Homo sapiens, HCT-116, HCT116 (colon), read-out: HCT116): ≤ 20 µM | IC50 ([15]; Homo sapiens, IC50 class against A549 (lung) tumor cells): ≤ 20 µM

CNC(=O)COc1cccc(Nc2ncc(F)c(Nc3ccc4c(c3)NC(=O)C(C)(C)O4)n2)c1 [compound 355]
IC50 [7]: ≤ 20 µM | IC50 [17]: ≤ 20 µM | IC50 [14, 23]: > 20 µM

COc1c(C)cc(Nc2ncc(F)c(Nc3ccc4c(c3)NC(=O)C(C)(C)O4)n2)cc1Cl [compound 359]
IC50 [7]: ≤ 20 µM | IC50 [14, 23]: > 20 µM

COc1cc(Nc2ncc(F)c(Nc3ccc4c(c3)OCCO4)n2)cc(OC)c1 [compound 512]
IC50 [1]: ≤ 20 µM | IC50 [2]: ≤ 20 µM | IC50 [4]: ≤ 20 µM | IC50 [5, 25]: ≤ 20 µM | IC50 [6]: ≤ 20 µM | IC50 [7]: ≤ 20 µM | IC50 [17]: > 20 µM | IC50 [8]: ≤ 20 µM | IC50 [9]: ≤ 20 µM | IC50 [10]: ≤ 20 µM | IC50 [11]: ≤ 20 µM | IC50 [14, 23]: > 20 µM | IC50 [15, 26]: ≤ 20 µM

Cc1cc(Nc2ncc(F)c(Nc3ccc4c(c3)OCCO4)n2)cc(C(F)(F)F)c1 [compound 523]
IC50 [1]: ≤ 20 µM | IC50 [2]: ≤ 20 µM | IC50 [4]: ≤ 20 µM | IC50 [5, 25]: ≤ 20 µM | IC50 [6]: ≤ 20 µM | IC50 [7]: ≤ 20 µM | IC50 [8]: ≤ 20 µM | IC50 [9]: ≤ 20 µM | IC50 [10]: ≤ 20 µM | IC50 [11]: ≤ 20 µM | IC50 [14, 23]: > 20 µM | IC50 [15, 26]: > 20 µM

CCOC(=O)c1cc2cccc(Nc3ncc(F)c(Nc4cc(C)cc(C)c4)n3)c2[nH]1 [compound 646]
IC50 [1]: ≤ 20 µM | IC50 [2]: ≤ 20 µM | IC50 [3]: ≤ 20 µM | IC50 [4]: ≤ 20 µM | IC50 ([5]; Table 7, in vitro antiproliferation, H1299 (lung) cells): ≤ 20 µM | IC50 [6]: ≤ 20 µM | IC50 [7]: ≤ 20 µM | IC50 [8]: ≤ 20 µM | IC50 [9]: ≤ 20 µM | IC50 [10]: ≤ 20 µM | IC50 [11]: ≤ 20 µM | IC50 [14, 23]: > 20 µM | IC50 [14, 27]: ≤ 20 µM | IC50 [15, 28]: ≤ 20 µM

CNC(=O)c1cc2cccc(Nc3ncc(F)c(Nc4ccc5c(c4)OCCO5)n3)c2[nH]1 [compound 649]
IC50 [2]: ≤ 20 µM | IC50 [4]: ≤ 20 µM | IC50 [7]: ≤ 20 µM | IC50 [8]: ≤ 20 µM | IC50 [10]: ≤ 20 µM | IC50 [11]: ≤ 20 µM | IC50 [14, 23]: > 20 µM | IC50 [14, 27]: ≤ 20 µM | IC50 [15, 28]: ≤ 20 µM

COc1cc(Nc2ncc(F)c(Nc3ccc(Cl)c(Cl)c3)n2)cc(OC)c1 [compound 835]
IC50 [4]: ≤ 20 µM | IC50 [5, 29]: ≤ 20 µM | IC50 [8]: ≤ 20 µM | IC50 [14, 23]: ≤ 20 µM | IC50 [15, 30]: ≤ 20 µM

COc1cc(Nc2nc(Nc3cc(C)cc(C)c3)ncc2F)cc(OC)c1 [compound 846]
IC50 [1]: ≤ 20 µM | IC50 [3]: ≤ 20 µM | IC50 [4]: ≤ 20 µM | IC50 [5, 29]: ≤ 20 µM | IC50 [6]: ≤ 20 µM | IC50 [9]: ≤ 20 µM | IC50 [14, 23]: ≤ 20 µM | IC50 [15, 30]: ≤ 20 µM

COc1cc(OC)cc(N(C)c2nc(Nc3cc(C)cc(C)c3)ncc2F)c1 [compound 851]
IC50 [5, 29]: ≤ 20 µM | IC50 [8]: ≤ 20 µM | IC50 [11]: ≤ 20 µM | IC50 [14, 23]: ≤ 20 µM | IC50 [15, 30]: ≤ 20 µM

COc1ccc(Nc2nc(Nc3cccc(-c4ncco4)c3)ncc2F)cc1OC [compound 858]
IC50 [1]: ≤ 20 µM | IC50 [5, 29]: ≤ 20 µM | IC50 [6]: ≤ 20 µM | IC50 [8]: ≤ 20 µM | IC50 [9]: ≤ 20 µM | IC50 [11]: ≤ 20 µM | IC50 [12, 19]: ≤ 20 µM | IC50 [12, 20]: ≤ 20 µM | IC50 [13, 21]: ≤ 20 µM | IC50 [13, 22]: ≤ 20 µM | IC50 [14, 23]: ≤ 20 µM | IC50 [15, 30]: ≤ 20 µM

COc1ccc(N(C)c2nc(Nc3cccc(-c4ncco4)c3)ncc2F)cc1OC [compound 868]
IC50 [1]: ≤ 20 µM | IC50 [3]: ≤ 20 µM | IC50 [5, 29]: ≤ 20 µM | IC50 [6]: ≤ 20 µM | IC50 [8]: ≤ 20 µM | IC50 [9]: ≤ 20 µM | IC50 [14, 23]: ≤ 20 µM | IC50 [15, 30]: ≤ 20 µM

Cc1cc(Nc2ncc(F)c(Nc3cc(C)c(O)c(Cl)c3)n2)cc(Cl)c1O [compound 942]
IC50 [1]: ≤ 20 µM | IC50 [2]: ≤ 20 µM | IC50 [3]: ≤ 20 µM | IC50 [4]: ≤ 20 µM | IC50 ([5]; H1299 (lung) cells, antiproliferation): ≤ 20 µM | IC50 [6]: ≤ 20 µM | IC50 [7]: ≤ 20 µM | IC50 [8]: ≤ 20 µM | IC50 [9]: ≤ 20 µM | IC50 [10]: ≤ 20 µM | IC50 [11]: ≤ 20 µM | IC50 [14, 23]: ≤ 20 µM | IC50 ([15]; A549 (lung) cells, antiproliferation): ≤ 20 µM
